Where two headings read alike, the source gives them in different places.
Key:
BRD4(1) = BRD4(1) (Homo sapiens (Human), UniProt O60885); assay: BROMOscan KD determination; assay type: binding; conditions: Table 10
Text: (§1) DiscoverX® can screen compounds against all ˜42 bromodomains (a service called BROMOscan) and perform follow-up KD determination. This service is considered the industrial standard for bromodomain inhibitor comparisons.

BRD4(2) = BRD4(2) (Homo sapiens (Human), UniProt O60885); assay: BROMOscan KD determination; assay type: binding; conditions: for 4(1)/4(2): BROMOscan KD ratio; for Kd: BROMOscan, Table 10
Text: as §1

BRD3(2) = BRD3(2) (Homo sapiens (Human), UniProt Q15059); assay: BROMOscan KD determination; assay type: binding; conditions: for 3(1)/3(2): BROMOscan KD ratio; for Kd: BROMOscan, Table 10
Chain of BRD3(2) (Q15059 306-415): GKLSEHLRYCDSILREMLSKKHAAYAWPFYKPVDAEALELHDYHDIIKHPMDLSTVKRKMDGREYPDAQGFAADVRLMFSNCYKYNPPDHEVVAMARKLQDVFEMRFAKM
Text: as §1

BRD3(1) = BRD3(1) (Homo sapiens (Human), UniProt Q15059); assay: BROMOscan KD determination; assay type: binding; conditions: Table 10
Chain of BRD3(1) (Q15059 34-140): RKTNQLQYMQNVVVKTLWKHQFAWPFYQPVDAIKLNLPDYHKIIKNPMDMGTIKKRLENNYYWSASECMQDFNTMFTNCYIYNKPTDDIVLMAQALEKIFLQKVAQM
Text: as §1

BRD2(1) = BRD2(1) (Homo sapiens (Human), UniProt P25440); assay: BROMOscan KD determination; assay type: binding; conditions: Table 10
Chain of BRD2(1) (P25440 74-180): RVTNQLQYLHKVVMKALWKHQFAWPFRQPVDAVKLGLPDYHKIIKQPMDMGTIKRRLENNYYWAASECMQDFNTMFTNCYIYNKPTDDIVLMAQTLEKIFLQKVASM
Text: (§2) DiscoverX® can screen compounds against all ˜42 bromodomains (a service called BROMOscan) and perform follow-up KD determination. This service is considered the industrial standard for bromodomain inhibitor comparisons. […] Dots are symbolic of inhibition of the compound at this concentration; the larger the size of the dot, the greater the activity of the compound. […] Though these compounds are selective for the BET family, the selectivity within the BET family is poor. The results of a competitive binding experiment between compounds 19 (left), 41 (center), and 56 (right) (at a single concentration, 1 μM) and a control for each of the bromodomains are shown in FIG. 5.

BRDT(2) = BRDT(2) (Homo sapiens (Human), UniProt Q58F21); assay: BROMOscan KD determination; assay type: binding; conditions: for T(1)/T(2): BROMOscan KD ratio; for Kd: BROMOscan, Table 10
Text: as §2

BRDT(1) = BRDT(1) (Homo sapiens (Human), UniProt Q58F21); assay: BROMOscan KD determination; assay type: binding; conditions: Table 10
Text: as §2

BRD2(2) = BRD2(2) (Homo sapiens (Human), UniProt P25440); assay: BROMOscan KD determination; assay type: binding; conditions: for [2(1)/2(2)]: BROMOscan KD ratio; for Kd: BROMOscan, Table 10
Chain of BRD2(2) (P25440 344-453): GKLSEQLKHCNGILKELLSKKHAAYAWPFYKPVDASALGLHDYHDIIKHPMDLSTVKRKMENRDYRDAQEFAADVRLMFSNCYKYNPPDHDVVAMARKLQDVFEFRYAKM
Text: as §2

BRD3-BD1 = BRD3-BD1 (Homo sapiens (Human), UniProt Q15059); assay: competitive TR-FRET assay, BET-BD with acetylated peptide ligand; assay type: binding
Chain of BRD3-BD1 (Q15059 34-140): as the sequence (Q15059 34-140) above
Experimental: (§3) Inhibitor potency was determined using a competitive TR-FRET assay as detailed herein, measuring interaction of the respective BET-BD with an acetylated peptide ligand (Table 2).

BRD2-BD1 = BRD2-BD1 (Homo sapiens (Human), UniProt P25440); assay: as above; assay type: binding
Chain of BRD2-BD1 (P25440 74-180): as the sequence (P25440 74-180) above
Experimental: as §3

BRD4-BD2 = BRD4-BD2 (Homo sapiens (Human), UniProt O60885); assay: as above; assay type: binding
Experimental: as §3

BRD2-BD2 = BRD2-BD2 (Homo sapiens (Human), UniProt P25440); assay: as above; assay type: binding; conditions: for 2.1/2.2: ratio of BRD2-BD1 EC50 to BRD2-BD2 EC50 (selectivity)
Chain of BRD2-BD2 (P25440 344-453): as the sequence (P25440 344-453) above
Experimental: as §3

BRDT = BRDT (Homo sapiens, UniProt Q58F21); assay: as above; assay type: binding
Experimental: as §3

BRD4-BD1 = BRD4-BD1 (Homo sapiens (Human), UniProt O60885); assay: as above; assay type: binding
Experimental: as §3

HDMB03 cells = assay: cell viability, CellTiter-Glo; assay type: cell-based, human; conditions: Homo sapiens, read-out: EC50 (μM) HDMB03
Experimental: Human G3 medulloblastoma or mouse SHH medulloblastoma cells were grown as neurospheres in supplemented neurobasal medium, as previously described (Kawauchi et al., 2012.)
(§4) After 7 days of treatment, an equal volume of CellTiter-Glo reagent (G7572, Promega) was added and the luminescence signal was measured using an automated Envision plate reader (Perkin-Elmer). Luminescence data were normalized by log10 transformation prior to calculating the percent inhibition using the following equation:
(§5) 100*(negative control mean −compound value)/(negative control mean −positive control mean).
High-throughput assay data were analyzed using Robust Interpretation of Screening Experiments (RISE) application written in Pipeline Pilot (Accelrys, v. 8.5) and the R program (R Development Core Team).
Dose-response curves were calculated by regressing the median percent inhibition obtained over triplicate experiments to log 10-transformed concentrations. Non-linear regression was then performed using the R drc package with the four parameter log-logistic function (LL2.4) (Ritz and Streibig, 2009). Curves were fit under three different constraints: (1) all parameters free, (2) high response fixed to 100, (3) low response fixed to 0; and the best fit from these three nested models was selected using the anova.drc function.

[1] = tested on: c-Myc expression in HDMB03 cells; assay: c-Myc expression inhibition, high content microscopy (HCM); assay type: cell-based, human; conditions: Homo sapiens, read-out: EC50 (μM) Myc-inhibition
MV-4-11 = assay: anti-proliferative activity; assay type: cell-based; conditions: Homo sapiens, MV4-11; Table 7
Experimental: as §4, §5

[2] = BRD3-BD1, Table 11 additional modifications, read-out: 3.1 EC50
[3] = BRD2-BD1, Table 11 additional modifications, read-out: 2.1 EC50
[4] = BRD4-BD2, Table 11 additional modifications, read-out: 4.2 EC50
[5] = BRD2-BD2, Table 11 additional modifications, read-out: 2.2 EC50
[6] = BRDT, Table 11 additional modifications, read-out: BRDT EC50
[7] = BRD4-BD1, Table 11 additional modifications, read-out: 4.1 EC50
[8] = Table 4, read-out: EC50 (μM) BRD2(1)
[9] = Table 4, read-out: EC50 (μM) BRD2(2)
[10] = Table 6, read-out: EC50 (μM) BRD3(1)
[11] = Table 6, read-out: EC50 (μM) BRD2(1)
[12] = Table 6, read-out: EC50 (μM) BRD2(2)
[13] = Table 6, head names no target, BRDT by comparison with Table 4, read-out: EC50

Kd (BRD4(1))	4(1)/4(2) (BRD4(2))	Kd (BRD4(2))	3(1)/3(2) (BRD3(2))	Kd (BRD3(2))	Kd (BRD3(1))	Kd (BRD2(1))	T(1)/T(2) (BRDT(2))	Kd (BRDT(2))	Kd (BRDT(1))	[2(1)/2(2)] (BRD2(2))	Kd (BRD2(2))	EC50 (BRD3-BD1; [2])	EC50 (BRD2-BD1; [3])	EC50 (BRD2-BD2; [5])	2.1/2.2 (BRD2-BD2)	EC50 (BRDT; [6])	EC50 (BRD4-BD1; [7])	Compound	further results
17 nM	13.1	1.3 nM	28.2	0.78 nM	22 nM	28 nM	2.9	6.9 nM	20 nM	14.0	2 nM	1.1 µM	0.88 µM	59 µM	0.015	2500 nM	1.3 µM	CC(=O)Nc1cccc(-c2ccc3c(c2)[C@H](Nc2ccc4ncccc4c2)C[C@H](C)N3C(C)=O)c1 [compound 13]	EC50 (BRD4-BD2; [4]): 60 µM
–	–	–	–	–	–	–	–	–	–	–	–	–	–	–	–	–	–	CC(=O)Nc1cccc(-c2ccc3c(c2)[C@H](Nc2ccc(F)cc2)C[C@H](C)N3C(C)=O)c1 [compound 39]	EC50 (BRD3-BD1; Table 4, read-out: BRD3(1)): 2.7 µM; EC50 (BRD2-BD1; [8]): 5.6 µM; 4(1)/4(2) (BRD4-BD2; Table 4, ratio of EC50): 63; EC50 (BRD4-BD2; Table 4, read-out: EC50 (μM) BRD4(2)): 0.09 µM; [2(1)/2(2)] (BRD2-BD2; Table 4, ratio of EC50): 51; EC50 (BRD2-BD2; [9]): 0.11 µM; EC50 (BRDT; Table 4, read-out: BRDT EC50): 10000 nM; EC50 (BRD4-BD1; Table 4, read-out: EC50 (μM) BRD4(1)): 5.7 µM; EC50 (HDMB03 cells; HD-MB03, Table 5): 1.68 µM; EC50 ([1]; HD-MB03, Table 5): 0.04 µM
410 nM	64.1	6.4 nM	138.9	3.6 nM	500 nM	790 nM	9.4	31 nM	290 nM	49.4	16 nM	–	–	–	–	–	–	CC(=O)Nc1cccc(-c2ccc3c(c2)[C@H](Nc2ccccc2C(F)(F)F)C[C@H](C)N3C(C)=O)c1 [compound 41]	EC50 (BRD3-BD1; Table 4, read-out: BRD3(1)): 20 µM; EC50 (BRD2-BD1; [8]): 70 µM; [2(1)/2(2)] (BRD2-BD2; Table 4, ratio of EC50): 57; EC50 (BRD2-BD2; [9]): 0.35 µM; EC50 (BRDT; Table 4, read-out: BRDT EC50): 53000 nM; EC50 (HDMB03 cells; HD-MB03, Table 5): 1.6 µM; EC50 ([1]; HD-MB03, Table 5): 6.2 µM
–	–	–	–	–	–	–	–	–	–	–	–	–	–	–	–	–	–	COC(=O)c1ccc(N[C@@H]2C[C@H](C)N(C(C)=O)c3ccc(-c4cccc(NCc5ccoc5)c4)cc32)cc1 [compound 43]	EC50 (MV-4-11): 0.007 µM; EC50 (BRD3-BD1; [10]): 0.41 µM; EC50 (BRD2-BD1; [11]): 0.51 µM; [2(1)/2(2)] (BRD2-BD2; Table 6, ratio of EC50): 10; EC50 (BRD2-BD2; [12]): 0.05 µM; EC50 (BRDT; [13]): 1200 nM; EC50 (HDMB03 cells; HD-MB03, Table 7): 1.5 µM; EC50 ([1]; HD-MB03, Table 7): 0.88 µM
–	–	–	–	–	–	–	–	–	–	–	–	–	–	–	–	–	–	CCCCCNc1cccc(-c2ccc3c(c2)[C@H](Nc2ccc(C(=O)OC)cc2)C[C@H](C)N3C(C)=O)c1 [compound 44]	EC50 (MV-4-11): 0.035 µM; EC50 (BRD3-BD1; [10]): 2.1 µM; EC50 (BRD2-BD1; [11]): 2.7 µM; [2(1)/2(2)] (BRD2-BD2; Table 6, ratio of EC50): 22.5; EC50 (BRD2-BD2; [12]): 0.12 µM; EC50 (BRDT; [13]): 7400 nM; EC50 (HDMB03 cells; HD-MB03, Table 7): 0.39 µM; EC50 ([1]; HD-MB03, Table 7): 0.3 µM
14 nM	12.7	1.1 nM	6.9	1.6 nM	11 nM	23 nM	6.1	2.8 nM	17 nM	13.5	1.7 nM	–	–	–	–	–	–	COC(=O)c1ccc(N[C@@H]2C[C@H](C)N(C(C)=O)c3ccc(-c4ccnn4C)cc32)cc1 [compound 49]	EC50 (BRD3-BD1; Table 8, read-out: BRD3(1)): 0.9 µM; EC50 (BRD2-BD1; Table 8, read-out: EC50 (μM) BRD2(1)): 1.4 µM; EC50 (BRD2-BD2; Table 8, read-out: EC50 (μM) BRD2(2)): 0.14 µM; EC50 (BRDT; Table 8, head names no target, BRDT by comparison with Table 4, read-out: EC50): 4400 nM; EC50 (HDMB03 cells; HD-MB03, Table 9, cancer cell proliferation inhibition): 1.6 µM; EC50 ([1]; HD-MB03, Table 9, c-Myc expression inhibition in HDMB03 cells): 5.1 µM
140 nM	31.8	4.4 nM	23.0	4.3 nM	99 nM	160 nM	4.1	23 nM	95 nM	19.5	8.2 nM	8.1 µM	8.2 µM	0.5 µM	16	12000 nM	> 63 µM	CCCOc1cccc(-c2ccc3c(c2)[C@H](Nc2ccc(C(=O)OC)cc2)C[C@H](C)N3C(C)=O)c1 [compound 56]	–
270 nM	35.1	7.7 nM	29.3	7.5 nM	220 nM	350 nM	3.3	66 nM	220 nM	21.9	16 nM	10 µM	17 µM	0.19 µM	63	10000 nM	17 µM	CC(=O)N1c2ccc(-c3cccc(-n4cccn4)c3)cc2[C@H](Nc2ccc(Cl)cc2)C[C@@H]1C [compound 136]	EC50 (BRD4-BD2; [4]): 0.25 µM
